# From US9980948B2, “Azaindole derivative having AMPK-activating activity” (Shionogi & Co., Ltd., priority 2014, dated 2018)
# Like-named read-outs stand apart in the source and are kept apart here.
# Target: T1, Human AMPK α2β2γ1 (Homo sapiens, UniProt O43741+P54646)
# T1 construct: The full length cDNAs of human AMPK β2 (NM_005399.3) and human AMPK α2 (NM_006252.3); The full length cDNAs of human AMPK β2 (NM_005399.3); the full length cDNA of human AMPK γ1 (NM_002733.3) had been inserted into pET28b(+); 6xHis (N); made in house; host or cells: Escherichia coli BL21 CodonPlus (DE3)-RTL (AMPK); BL21 Star (DE3) (CaMKKβ)
# T1 sequence (P54646 whole entry): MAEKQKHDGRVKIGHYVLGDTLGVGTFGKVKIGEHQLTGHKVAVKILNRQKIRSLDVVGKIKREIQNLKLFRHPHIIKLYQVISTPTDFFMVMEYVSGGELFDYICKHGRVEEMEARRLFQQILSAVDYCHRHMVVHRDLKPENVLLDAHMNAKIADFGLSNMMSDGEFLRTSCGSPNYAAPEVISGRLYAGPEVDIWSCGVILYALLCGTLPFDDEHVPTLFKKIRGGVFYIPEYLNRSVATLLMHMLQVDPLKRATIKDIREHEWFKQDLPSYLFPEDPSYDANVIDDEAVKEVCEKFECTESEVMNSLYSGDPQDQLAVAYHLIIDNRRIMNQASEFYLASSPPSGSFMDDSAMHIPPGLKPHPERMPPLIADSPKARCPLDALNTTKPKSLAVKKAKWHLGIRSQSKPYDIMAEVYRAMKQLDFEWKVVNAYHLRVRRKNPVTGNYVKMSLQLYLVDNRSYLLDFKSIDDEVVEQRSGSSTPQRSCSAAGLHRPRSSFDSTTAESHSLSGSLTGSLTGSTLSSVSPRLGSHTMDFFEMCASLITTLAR
# T1 sequence (O43741 whole entry): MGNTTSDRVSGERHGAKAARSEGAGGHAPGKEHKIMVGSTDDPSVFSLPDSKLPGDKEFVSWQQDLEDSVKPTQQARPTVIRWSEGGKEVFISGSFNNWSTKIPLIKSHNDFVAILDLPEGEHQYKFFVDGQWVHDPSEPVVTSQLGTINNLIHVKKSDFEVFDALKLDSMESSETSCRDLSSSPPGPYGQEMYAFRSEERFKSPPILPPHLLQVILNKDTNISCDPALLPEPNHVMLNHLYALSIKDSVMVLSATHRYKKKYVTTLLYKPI
# T1 sequence (P54619 whole entry partner): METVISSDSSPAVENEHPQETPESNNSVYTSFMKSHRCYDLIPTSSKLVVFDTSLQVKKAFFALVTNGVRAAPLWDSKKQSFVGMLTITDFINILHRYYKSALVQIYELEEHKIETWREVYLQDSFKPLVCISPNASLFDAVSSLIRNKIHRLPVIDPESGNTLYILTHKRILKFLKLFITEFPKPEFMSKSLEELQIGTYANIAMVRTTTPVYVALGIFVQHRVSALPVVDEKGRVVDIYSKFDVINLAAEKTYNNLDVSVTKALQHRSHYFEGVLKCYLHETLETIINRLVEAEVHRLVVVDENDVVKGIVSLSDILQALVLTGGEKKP
# Test: Test Example 2: evaluation of an activator for AMP-activated protein kinase (AMPK), human AMPK α2β2γ1 phosphorylated with CaMKK2, FL-Peptide 7 mobility shift
# Format: biochemical
# Settings: for EC150 (compound concentration showing 150% relative to the control (100%)): human AMPK α2β2γ1, 0.2 mM ATP final, 25° C., 2 hours; for Emax: read-out: Emax (maximum rate of increase in activity within the measurement range)
# Experimental: The full length cDNAs of human AMPK β2 (NM_005399.3) and human AMPK α2 (NM_006252.3) were inserted into the MCS1 and MCS2 of the pETDuet-1 vector to prepare a human AMPK β2 and human AMPK α2 (6× His tag at the 5′ terminus) expressing plasmid. The plasmid was cotransfected with an expression plasmid, in which the full length cDNA of human AMPK γ1 (NM_002733.3) had been inserted into pET28b(+), into BL21 CodonPlus (DE3)-RTL to obtain an expression strain. The expression strain was cultured in TB medium, followed by induction with 0.5 mM IPTG, and cultured at 25° C. for 3 hours and then harvested.
# An expression vector, in which the full length cDNA of human CAMKK β (NM_172226.1) had been inserted into pGEX-6P-3, was transfected into BL21 Star (DE3). The expression strain was cultured in TB medium, followed by induction with 0.5 mM IPTG, and cultured at 25° C. for 3 hours and then harvested.
# Thus, phosphorylation treatment was carried out as pretreatment.
# Human AMPK α2β2γ1 in an amount to give a conversion rate of approximately 10% by reaction for 2 hours, and CaMKK2 in an amount capable of sufficiently imparting activity to AMPK for one hour were mixed in a buffer solution consisting of a 50 mM HEPES-NaOH buffer solution (pH 7.0), 100 mM NaCl, 5 mM magnesium chloride, 0.1% bovine serum albumin, 0.2 mM sodium orthovanadate(V), 1 mM ethylene glycol-bis(2-aminoethyl ether)-N,N,N′,N′-tetraacetic acid (EGTA), 5 mM disodium β-glycerophosphate, 1 mM dithiothreitol and 0.2 mM ATP, and the obtained liquid was left to stand at 25° C. for 1 to 1.5 hours to sufficiently phosphorylate AMPK.
# The obtained liquid was left to stand for 10 minutes.
# The obtained liquid was allowed to react at 25° C. for 2 hours, and 10 μl of 20 mM EDTA was then added thereto to stop the reaction.
# To detect phosphorylated fluorescent substrates, the reaction liquid was applied to a measuring device, LabChip EZ Reader II manufactured by Caliper Life Science, Inc., for detecting fluorescence by using differences in mobility due to differences in charge. The setting conditions for the device were pressure, −1.5 PSI; upstream voltage, −2250 V; downstream voltage, −400 V; post sample buffer sip time, 40 seconds; final delay, 120 seconds; and peak order, Product First.
# A conversion rate was calculated from the peak heights of the resulting substrate and product. The conversion rate when not containing a compound was used as a control, and a concentration dependent curve was made by plotting the rate of increase in activity to the control at each concentration of a compound.
# [1] = human AMPK α2β2γ1, relative to control (100%)
Structure (SMILES),EC150 (compound concentration showing 150% relative to the control (100%)) [nM],Emax [1] [%],Emax (maximum rate of increase in activity within the measurement range) [1] [%],Emax [%]
N#Cc1cc2[nH]c(O[C@@H]3CO[C@H]4[C@@H]3OC[C@H]4O)cc2nc1-c1ccc(C2=CCOCC2)cc1 [Compound I-2-19],1.6,916,,
Cn1ccc2cc(-c3nc4c(C#N)c(O[C@@H]5CO[C@H]6[C@@H]5OC[C@H]6O)[nH]c4cc3Cl)ccc21 [Compound I-2-28],57,446,,
O=C(CO)N1CC=C(c2ccc(-c3nc4cc(O[C@@H]5CO[C@H](CO)C5)[nH]c4cc3F)cc2)CC1 [Compound I-2-33],2.5,511,,
O[C@@H]1CO[C@H]2[C@@H]1OC[C@H]2Oc1cc2nc(-c3ccc(C4(O)CCC4)cc3)c(F)cc2[nH]1 [Compound I-2-34],20,495,,
N#Cc1cc2[nH]c(O[C@@H]3CO[C@H]4[C@@H]3OC[C@H]4O)cc2nc1-c1ccc(N2CCOCC2)cc1F [Compound I-2-42],48,481,,
N#Cc1cc2[nH]c(O[C@@H]3CO[C@H]4[C@@H]3OC[C@H]4O)cc2nc1-c1ccc(-c2ccccc2)cc1 [Compound I-2-45],19,492,,
N#Cc1c(O[C@@H]2CO[C@H]3[C@@H]2OC[C@H]3O)[nH]c2cc(Cl)c(-c3ccc(-c4cnn(CCO)c4)cc3)nc12 [Compound I-2-46],77,510,,
O[C@@H]1CO[C@H]2[C@@H]1OC[C@H]2Oc1cc2nc(-c3ccc(C4CCCCO4)cc3)c(F)cc2[nH]1 (stereo partly drawn) [Compound I-2-57],10,484,,
O[C@@H]1CO[C@H]2[C@@H]1OC[C@H]2Oc1cc2nc(-c3ccc([C@@H]4C[C@@H](O)[C@@H](O)CO4)cc3)c(Cl)cc2[nH]1 [Compound I-2-61-a],6.4,442,,
O[C@@H]1CO[C@H]2[C@@H]1OC[C@H]2Oc1cc2nc(-c3ccc([C@H]4C[C@H](O)[C@H](O)CO4)cc3)c(F)cc2[nH]1 [Compound I-2-61-b],6.4,442,,
O[C@@H]1CO[C@H]2[C@@H]1OC[C@H]2Oc1cc2nc(-c3ccc(C4CCCO4)cc3)c(F)cc2[nH]1 (stereo partly drawn) [Compound I-2-68],26,382,,
Cn1ncc2cc(-c3nc4cc(O[C@@H]5CO[C@H]6[C@@H]5OC[C@H]6O)[nH]c4cc3F)ccc21 [Compound I-2-69],58,521,,
Cn1c(-c2nc3cc(O[C@@H]4CO[C@H]5[C@@H]4OC[C@H]5O)[nH]c3cc2F)cc2ccccc21 [Compound I-2-70],38,511,,
COc1ccc(-c2nc3cc(O[C@@H]4CO[C@H]5[C@@H]4OC[C@H]5O)[nH]c3cc2F)cc1 [Compound I-2-71],89,446,,
COc1nc(N2CC[C@@H](O)C2)ccc1-c1nc2cc(O[C@@H]3CO[C@H]4[C@@H]3OC[C@H]4O)[nH]c2cc1F [Compound I-2-78],7.1,490,,
CS(=O)(=O)N1C2C=C(c3ccc(-c4nc5cc(O[C@@H]6CO[C@H]7[C@@H]6OC[C@H]7O)[nH]c5cc4F)cc3)CC1CC2 (stereo partly drawn) [Compound I-3-4],30,,568,
O[C@@H]1CO[C@H]2[C@@H]1OC[C@H]2Oc1cc2nc(-c3ccc(OCCCN4CCOCC4)cc3)c(F)cc2[nH]1 [Compound I-3-6],74,475,,

Structure (SMILES),EC150 (compound concentration showing 150% relative to the control (100%)) [nM],Emax [1] [%],Emax (maximum rate of increase in activity within the measurement range) [1] [%],Emax [%]
CC(=O)Nc1nc(-c2ccc(-c3nc4cc(O[C@@H]5CO[C@H]6[C@@H]5OC[C@H]6O)[nH]c4cc3F)cc2)cs1 [Compound I-3-10],7.9,391,,
CS(C)(=O)=Nc1ccc(-c2ccc(-c3nc4cc(O[C@@H]5CO[C@H]6[C@@H]5OC[C@H]6O)[nH]c4cc3F)cc2)nc1 [Compound I-3-12],4.2,396,,
O[C@@H]1CO[C@H]2[C@@H]1OC[C@H]2Oc1cc2nc(-c3ccc4scnc4c3)c(F)cc2[nH]1 [Compound I-3-14],150,430,,
N#Cc1cc2[nH]c(O[C@@H]3CO[C@H]4[C@@H]3OC[C@H]4O)cc2nc1NC1CCc2cc(F)cc(F)c21 (stereo partly drawn) [Compound I-3-17],40,492,,
O[C@@H]1CO[C@H]2[C@@H]1OC[C@H]2Oc1cc2nc(NC3CCc4cc(F)cc(F)c43)c(C(F)(F)F)cc2[nH]1 (stereo partly drawn) [Compound I-3-19],120,543,,
O[C@@H]1CO[C@H]2[C@@H]1OC[C@H]2Oc1cc2nc(-c3ccc(-c4ccsc4)cc3)c(F)cc2[nH]1 [Compound I-3-23],5,510,,
O[C@@H]1CO[C@H]2[C@@H]1OC[C@H]2Oc1cc2nc(-c3ccsc3)c(F)cc2[nH]1 [Compound I-3-24],340,315,,
Cn1cc(-c2ccc(-c3nc4cc(O[C@@H]5CO[C@H]6[C@@H]5OC[C@H]6O)[nH]c4cc3F)cc2)cn1 [Compound I-3-25],6.6,493,,
COc1nc(N2CCCC2)ccc1-c1nc2cc(O[C@@H]3CO[C@H]4[C@@H]3OC[C@H]4O)[nH]c2cc1F [Compound I-3-27],12,633,,
COc1cc(F)c(-c2nc3cc(O[C@@H]4CO[C@H]5[C@@H]4OC[C@H]5O)[nH]c3cc2F)c(F)c1 [Compound I-3-28],87,430,,
O=C(CO)NCCCOc1ccc(-c2nc3cc(O[C@@H]4CO[C@H]5[C@@H]4OC[C@H]5O)[nH]c3cc2F)cc1 [Compound I-3-31],55,505,,
O[C@@H]1CO[C@H]2[C@@H]1OC[C@H]2Oc1cc2nc(-c3ccc(N4CCOCC4)cc3F)c(C(F)(F)F)cc2[nH]1 [Compound I-3-39],200,491,,
CS(C)(=O)=Nc1ccc(-c2ccc(-c3nc4cc(O[C@@H]5CO[C@H]6[C@@H]5OC[C@H]6O)[nH]c4cc3F)cc2)cc1 [Compound I-3-40],0.91,,,491
COc1cc(C2=CCOCC2)ccc1-c1nc2cc(O[C@@H]3CO[C@H]4[C@@H]3OC[C@H]4O)[nH]c2cc1F [Compound I-3-41],31,500,,
CS(=N)(=O)c1ccc(-c2ccc(-c3nc4cc(O[C@@H]5CO[C@H]6[C@@H]5OC[C@H]6O)[nH]c4cc3F)cc2)cc1 (stereo partly drawn) [Compound I-3-43],0.84,538,,
CN=S(C)(=O)c1ccc(-c2ccc(-c3nc4cc(O[C@@H]5CO[C@H]6[C@@H]5OC[C@H]6O)[nH]c4cc3F)cc2)cc1 (stereo partly drawn) [Compound I-4-1],1.4,496,,
